What was measured:
Test in all cases: Cell proliferation WST-1 assay, single dose (Example 4)
Type in all cases: cell-based
Conditions in all cases: 100 μM, 48 hours
[1] = tested on: A375 melanoma cells
Outline: (§1)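 WST-1 absorbance at 450 nm (minus 650 nm background) after 48 h compound treatment; data expressed relative to DMSO-treated controls. Seeding ~5000 cells/well, 16-20 h recovery before dosing.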

[2] = tested on: HL-60 leukemic cells
Outline: as §1

[3] = tested on: HeLa cervical carcinoma cells
Outline: as §1

[4] = tested on: Jurkat T-cell leukemia cells
Outline: as §1

[5] = tested on: RPMI-7951 melanoma cells
Outline: as §1

[6] = tested on: SK-MEL-28 melanoma cells
Outline: as §1

SMILES | Cell Viability (% of Vehicle) A375 [1] | Cell Viability (% of Vehicle) HL-60 [2] | Cell Viability (% of Vehicle) HeLa [3] | Cell Viability (% of Vehicle) Jurkat [4] | Cell Viability (% of Vehicle) RPMI-7951 [5] | Cell Viability (% of Vehicle) SK-MEL-28 [6]
CCOc1ccc(/C=C2\SC(=O)N(Cc3ccc(C(=O)OC(C)(C)C)cc3)C2=O)cc1 [Compound 28p, (Z)-tert-butyl 4-((5-(4-ethoxybenzylidene)-2,4-dioxothiazolidin-3-yl)methyl)benzoate] | 119 ± 1 % of Vehicle | 98 ± 24 % of Vehicle | 100 ± 6 % of Vehicle | 101 ± 2 % of Vehicle | 122 ± 1 % of Vehicle | 105 ± 3 % of Vehicle
NCCN1C(=O)S/C(=C\c2ccc(O)cc2)C1=O [Compound 30f, (Z)-3-(2-aminoethyl)-5-(4-hydroxybenzylidene)thiazolidine-2,4-dione] | 8.8 ± 2 % of Vehicle | 17 ± 12 % of Vehicle | 63 ± 10 % of Vehicle | 96 ± 3 % of Vehicle | 24 ± 5 % of Vehicle | 38 ± 3 % of Vehicle
CCNCCN1C(=O)S/C(=C\c2ccc(OCC)cc2)C1=O [Compound 23b, (Z)-5-(4-ethoxybenzylidene)-3-(2-(ethylamino)ethyl)thiazolidine-2,4-dione] | 51 ± 4 % of Vehicle | 14 ± 4 % of Vehicle | 81 ± 2 % of Vehicle | 69 ± 10 % of Vehicle | 60 ± 4 % of Vehicle | 63 ± 10 % of Vehicle
CCOc1ccc(/C=C2\SC(=O)N(CCNC(=O)OC)C2=O)cc1 [Compound 26a, (Z)-methyl (2-(5-(4-ethoxybenzylidene)-2,4-dioxothiazolidin-3-yl)ethyl)carbamate] | 96 ± 4 % of Vehicle | 104 ± 31 % of Vehicle | 84 ± 4 % of Vehicle | 97 ± 7 % of Vehicle | 102 ± 4 % of Vehicle | 88 ± 3 % of Vehicle
CCOc1ccc(/C=C2\SC(=O)N(Cc3ccc(N)cc3)C2=O)cc1 [Compound 28o, (Z)-3-(4-aminobenzyl)-5-(4-ethoxybenzylidene)thiazolidine-2,4-dione] | 119 ± 6 % of Vehicle | 86 ± 21 % of Vehicle | 89 ± 9 % of Vehicle | 97 ± 7 % of Vehicle | 102 ± 23 % of Vehicle | 94 ± 5 % of Vehicle
CCCN1C(=O)S/C(=C\c2ccc(OCC)cc2)C1=O [Compound 28d, (Z)-5-(4-ethoxybenzylidene)-3-propylthiazolidine-2,4-dione] | 119 ± 5 % of Vehicle | 80 ± 26 % of Vehicle | 96 ± 4 % of Vehicle | 101 ± 5 % of Vehicle | 116 ± 10 % of Vehicle | 101 ± 3 % of Vehicle
Cc1ccc(/C=C2\SC(=O)N(CCN)C2=O)cc1 [Compound 30d, (Z)-3-(2-aminoethyl)-5-(4-methylbenzylidene)thiazolidine-2,4-dione] | 23 ± 6 % of Vehicle | 4.8 ± 2 % of Vehicle | 54 ± 3 % of Vehicle | 71 ± 6 % of Vehicle | 23 ± 1 % of Vehicle | 31 ± 7 % of Vehicle
CCOc1ccc(/C=C2\SC(=O)N(C(CN)CN)C2=O)cc1 [Compound 22e, (Z)-3-(1,3-diaminopropan-2-yl)-5-(4-ethoxybenzylidene)thiazolidine-2,4-dione] | 19 ± 4 % of Vehicle | 11 ± 4 % of Vehicle | 62 ± 2 % of Vehicle | 81 ± 9 % of Vehicle | 25 ± 3 % of Vehicle | 32 ± 2 % of Vehicle
CCOc1ccc(/C=C2\SC(=O)N(C[C@H](N)C(=O)OC)C2=O)cc1 [Compound 22d, (S,Z)-methyl 2-amino-3-(5-(4-ethoxybenzylidene)-2,4-dioxothiazolidin-3-yl)propanoate] | 41 ± 11 % of Vehicle | 25 ± 5 % of Vehicle | 87 ± 4 % of Vehicle | 100 ± 5 % of Vehicle | 1.8 ± 0.1 % of Vehicle | 33 ± 9 % of Vehicle
CCOc1ccc(/C=C2\SC(=O)N(CCNC(=O)OC(C)(C)C)C2=O)cc1 [Compound 25c, (Z)-tert-butyl (2-(5-(4-ethoxybenzylidene)-2,4-dioxothiazolidin-3-yl)ethyl)carbamate] | 84 ± 2 % of Vehicle | 31 ± 5 % of Vehicle | 81 ± 1 % of Vehicle | 92 ± 7 % of Vehicle | 62 ± 7 % of Vehicle | 73 ± 1 % of Vehicle
CCOc1ccc(/C=C2\SC(=O)N(CCN(Cc3ccccc3)Cc3ccccc3)C2=O)cc1 [Compound 24b, (Z)-3-(2-(dibenzylamino)ethyl)-5-(4-ethoxybenzylidene)thiazolidine-2,4-dione] | 122 ± 7 % of Vehicle | 109 ± 24 % of Vehicle | 92 ± 9 % of Vehicle | 104 ± 2 % of Vehicle | 120 ± 3 % of Vehicle | 104 ± 4 % of Vehicle
CCOc1ccc(/C=C2\SC(=O)N(CCNCc3ccc(C#N)cc3)C2=O)cc1 [Compound 23e, (Z)-4-(((2-(5-(4-ethoxybenzylidene)-2,4-dioxothiazolidin-3-yl)ethyl)amino)methyl)benzonitrile] | 89 ± 3 % of Vehicle | 75 ± 25 % of Vehicle | 88 ± 2 % of Vehicle | 98 ± 5 % of Vehicle | 96 ± 5 % of Vehicle | 96 ± 6 % of Vehicle
CCCc1ccc(/C=C2\SC(=O)N(CCN)C2=O)cc1 [Compound 30e, (Z)-3-(2-aminoethyl)-5-(4-propylbenzylidene)thiazolidine-2,4-dione] | 0.6 ± 0.1 % of Vehicle | 5.9 ± 2 % of Vehicle | 11 ± 2 % of Vehicle | 16 ± 8 % of Vehicle | 0.7 ± 0.1 % of Vehicle | 0.6 ± 0.4 % of Vehicle
CCOc1cccc(/C=C2\SC(=O)N(CCN)C2=O)c1 [Compound 30b, (Z)-3-(2-aminoethyl)-5-(3-ethoxybenzylidene)thiazolidine-2,4-dione] | 19 ± 3 % of Vehicle | 4.8 ± 2 % of Vehicle | 40 ± 1 % of Vehicle | 54 ± 5 % of Vehicle | 30 ± 2 % of Vehicle | 36 ± 6 % of Vehicle
CCOc1ccc(/C=C2\SC(=O)N(CCNS(=O)(=O)c3cn(C)cn3)C2=O)cc1 [Compound 27c, (Z)—N-(2-(5-(4-ethoxybenzylidene)-2,4-dioxothiazolidin-3-yl)ethyl)-1-methyl-1H-imidazole-4-sulfonamide] | 107 ± 2 % of Vehicle | 51 ± 31 % of Vehicle | 91 ± 5 % of Vehicle | 97 ± 4 % of Vehicle | 118 ± 6 % of Vehicle | 92 ± 5 % of Vehicle
N#Cc1ccc(COc2ccccc2/C=C2\SC(=O)N(CCN)C2=O)cc1 [Compound 30l, (Z)-4-((2-((3-(2-aminoethyl)-2,4-dioxothiazolidin-5-ylidene)methyl)phenoxy)methyl)benzonitrile] | 0.5 ± 0.04 % of Vehicle | 5.7 ± 2 % of Vehicle | 8.0 ± 2 % of Vehicle | 6.7 ± 1 % of Vehicle | 0.6 ± 0.03 % of Vehicle | 0.5 ± 0.01 % of Vehicle
